Positions of bridges follow the written chain, without caps; N, C: chain ends. Non-standard residues stand in square brackets, D forms with d. Residues, ends and D or L forms follow the SMILES beside them. *: point of attachment. hPhe(3-Cl-4-CF3) = N[C@@H](CCc1ccc(C(F)(F)F)c(Cl)c1)C(=O)O; 3Oxa8azabicyclo(3.2.1)octane = C1CC2COCC1N2*; NMeNle(6-CHF2) = CN[C@@H](CCCCC(F)F)C(=O)O; NMeGly(cPent) = CN[C@H](C(=O)O)C1CCCC1; NMeGly(cBu) = CN[C@H](C(=O)O)C1CCC1; NMeCha = CN[C@@H](CC1CCCCC1)C(=O)O; NMeGly(cPr) = CN[C@H](C(=O)O)C1CC1; NMeAhp(2) = CCCCC[C@H](NC)C(=O)O; NMeChg = CN[C@H](C(=O)O)C1CCCCC1; Gly(cBu) = N[C@H](C(=O)O)C1CCC1; NMeD = CN[C@@H](CC(=O)O)C(=O)O; NMeL = CN[C@@H](CC(C)C)C(=O)O; NMeV = CN[C@H](C(=O)O)C(C)C; Azetidin(1-yl) = C1CN(*)C1; NMeS = CN[C@@H](CO)C(=O)O; NMeA = CN[C@@H](C)C(=O)O; Piperidide = C1CCN(*)CC1; Pyrrolidide = C1CCN(*)C1; Ac5c = NC1(C(=O)O)CCCC1; Aze = O=C(O)[C@@H]1CCN1; NEtG = CCNCC(=O)O; Sar = CNCC(=O)O; Propyl = CCC*
system: Human pancreatic cancer cell line AsPC-1; experiment: Measurement of AsPC-1 cell growth inhibition (AsPC-1 CGI); assay type: cell-based; conditions: 96 h
Procedure: Measurement of AsPC-1 Cell Growth Inhibition (AsPC-1 CGI)
Test compounds were serially diluted with dimethyl sulfoxide, and 200 nL was then dispensed to a U-bottom 96-well plate using Labcyte Echo. Human pancreatic cancer cell line AsPC-1 was suspended in RPMI-1640 medium supplemented with 15% fetal bovine serum to prepare a cell suspension at 1000 cells/100 μL. The cell suspension was dispensed to a plate containing a test compound at 100 μL per well and incubated at 37° C. in a 5% carbon dioxide gas incubator. 96 hours later, 80 μL of CellTiter-Glo (Promega) was added to each well and […] was measured.

Structure (SMILES) | IC50
CC[C@H](C)[C@@H]1NC(=O)[C@H](CCCCC(F)F)N(C)C(=O)C[C@@H](C(=O)N2CCCCC2)N(C)C(=O)[C@H](C(C)C)N(C)C(=O)C2(CCCC2)NC(=O)[C@@H]2CCCN2C(=O)[C@H](CCc2ccc(C(F)(F)F)c(Cl)c2)NC(=O)CN(C)C(=O)[C@H](CC2CCCCC2)N(C)C(=O)[C@@H]2CCN2C(=O)[C@H](C)N(C)C1=O [Compound 94] ([NMeNle(6-CHF2)]I[NMeA][Aze][NMeCha][Sar][hPhe(3-Cl-4-CF3)]P[Ac5c][NMeV][NMeD]-Piperidide; lactam N-11) | 0.1 to 0.5 µM
CC[C@H](C)[C@@H]1NC(=O)[C@H](C2CC2)N(C)C(=O)C[C@@H](C(=O)N2CCCCC2)N(C)C(=O)[C@H](C(C)C)N(C)C(=O)C2(CCCC2)NC(=O)[C@@H]2CCCN2C(=O)[C@H](CCc2ccc(C(F)(F)F)c(Cl)c2)NC(=O)CN(C)C(=O)[C@H](CC2CCCCC2)N(C)C(=O)[C@@H]2CCN2C(=O)[C@H](C)N(C)C1=O [Compound 100] ([NMeGly(cPr)]I[NMeA][Aze][NMeCha][Sar][hPhe(3-Cl-4-CF3)]P[Ac5c][NMeV][NMeD]-Piperidide; lactam N-11) | 0.1 to 0.5 µM
CC[C@H](C)[C@@H]1NC(=O)[C@H](CC(C)C)N(C)C(=O)C[C@@H](C(=O)N2CCCCC2)N(C)C(=O)[C@H](C2CCCC2)N(C)C(=O)C2(CCCC2)NC(=O)[C@@H]2CCCN2C(=O)[C@H](CCc2ccc(C(F)(F)F)c(Cl)c2)NC(=O)CN(C)C(=O)[C@H](C2CCC2)N(C)C(=O)[C@@H]2CCN2C(=O)[C@H](C)N(C)C1=O [Compound 127] ([NMeL]I[NMeA][Aze][NMeGly(cBu)][Sar][hPhe(3-Cl-4-CF3)]P[Ac5c][NMeGly(cPent)][NMeD]-Piperidide; lactam N-11) | 0.02 to 0.05 µM
CCCCC[C@H]1C(=O)N[C@@H]([C@@H](C)CC)C(=O)N[C@@H](C)C(=O)N2CC[C@H]2C(=O)N(C)[C@@H](CC2CCCCC2)C(=O)N(C)CC(=O)N[C@@H](CCc2ccc(C(F)(F)F)c(Cl)c2)C(=O)N2CCC[C@H]2C(=O)NC2(CCCC2)C(=O)N(C)[C@@H](C2CCCC2)C(=O)N(C)[C@H](C(=O)N2CCC2)CC(=O)N1C [Compound 155] ([NMeAhp(2)]IA[Aze][NMeCha][Sar][hPhe(3-Cl-4-CF3)]P[Ac5c][NMeGly(cPent)][NMeD]-{Azetidin(1-yl)}; lactam N-11) | 0.02 to 0.05 µM
CC(C)C[C@H]1C(=O)N[C@@H](C2CCC2)C(=O)N(C)[C@@H](C)C(=O)N2CC[C@H]2C(=O)N(C)[C@@H](CC2CCCCC2)C(=O)N(C)CC(=O)N[C@@H](CCc2ccc(C(F)(F)F)c(Cl)c2)C(=O)N2CCC[C@H]2C(=O)NC2(CCCC2)C(=O)N(C)[C@@H](C(C)C)C(=O)N(C)[C@H](C(=O)N2CCCCC2)CC(=O)N1C [Compound 157] ([NMeL][Gly(cBu)][NMeA][Aze][NMeCha][Sar][hPhe(3-Cl-4-CF3)]P[Ac5c][NMeV][NMeD]-Piperidide; lactam N-11) | 0.1 to 0.5 µM
CC[C@H](C)[C@@H]1NC(=O)[C@H](CC(C)C)N(C)C(=O)C[C@@H](C(=O)N2CCCCC2)N(C)C(=O)[C@H](C2CCCCC2)N(C)C(=O)C2(CCCC2)NC(=O)CN(CC)C(=O)[C@H](CCc2ccc(C(F)(F)F)c(Cl)c2)NC(=O)CN(C)C(=O)[C@H](CC2CCCCC2)N(C)C(=O)CN(C)C(=O)CN(C)C1=O [Compound 160] ([NMeL]I[Sar][Sar][NMeCha][Sar][hPhe(3-Cl-4-CF3)][NEtG][Ac5c][NMeChg][NMeD]-Piperidide; lactam N-11) | 0.05 to 0.1 µM
CCCCC[C@H]1C(=O)N[C@@H]([C@@H](C)CC)C(=O)N[C@@H](C)C(=O)N2CC[C@H]2C(=O)N(C)[C@@H](COCCC)C(=O)N(C)CC(=O)N[C@@H](CCc2ccc(C(F)(F)F)c(Cl)c2)C(=O)N2CCC[C@H]2C(=O)NC2(CCCC2)C(=O)N(C)[C@@H](C2CCCC2)C(=O)N(C)[C@H](C(=O)N2C3CCC2COC3)CC(=O)N1C [Compound 163] ([NMeAhp(2)]IA[Aze][NMeS](Propyl)[Sar][hPhe(3-Cl-4-CF3)]P[Ac5c][NMeGly(cPent)][NMeD]-{3Oxa8azabicyclo(3.2.1)octane}; lactam N-11) | 0.05 to 0.1 µM
CC[C@H](C)[C@@H]1NC(=O)[C@H](CC(C)C)N(C)C(=O)C[C@@H](C(=O)N2CCCCC2)N(C)C(=O)[C@H](C2CCCC2)N(C)C(=O)C2(CCCC2)NC(=O)[C@@H]2CCCN2C(=O)[C@H](CCc2ccc(C(F)(F)F)c(Cl)c2)NC(=O)CN(C)C(=O)[C@H](C2CCCC2)N(C)C(=O)[C@@H]2CCN2C(=O)[C@H](C)N(C)C1=O [Compound 182] ([NMeL]I[NMeA][Aze][NMeGly(cPent)][Sar][hPhe(3-Cl-4-CF3)]P[Ac5c][NMeGly(cPent)][NMeD]-Piperidide; lactam N-11) | 0.02 to 0.05 µM
CC[C@H](C)[C@@H]1NC(=O)[C@H](CC(C)C)N(C)C(=O)C[C@@H](C(=O)N2CCCC2)N(C)C(=O)[C@H](C2CCCC2)N(C)C(=O)C2(CCCC2)NC(=O)[C@@H]2CCCN2C(=O)[C@H](CCc2ccc(C(F)(F)F)c(Cl)c2)NC(=O)CN(C)C(=O)[C@H](C2CCCC2)N(C)C(=O)[C@@H]2CCN2C(=O)[C@H](C)N(C)C1=O [Compound 201] ([NMeL]I[NMeA][Aze][NMeGly(cPent)][Sar][hPhe(3-Cl-4-CF3)]P[Ac5c][NMeGly(cPent)][NMeD]-Pyrrolidide; lactam N-11) | 0.02 to 0.05 µM

From US12371454B2, “Cyclic peptide compound having Kras inhibitory action” (priority 2019, dated 2025)
